# Measured values reported in EP0193189A1, “Novel compound, its production and insecticidal and acaricidal composition containing it as an active ingredient” (SUMITOMO CHEMICAL COMPANY, LIMITED, priority 1985, dated 1986).
# System: tobacco cutworms (Spodoptera litura)
# Assay: Test Example 2: tobacco cutworm larvae on treated artificial feed
# Type: in vivo
# Conditions: Spodoptera litura, 144 h; 150 ppm solution, 2 ml in 13 g artificial feed; 4th instar larvae; six days after; read-out: Mortality (%)
# Source text: The emulsifiable concentrates of the following present compounds obtained according to Formulation example 2 were each diluted with water to obtain respective 667 times dilution aqueous solutions (corresponding to 150 ppm) containing said compounds, respectively. Two ml of thus diluted solutions were impregnated into the artificial feeds (13 g) for tobacco cutworms (Spodoptera litura) and thus prepared feeds were placed in polyethylene cups of 11 cm in diameter, respectively. Ten of the 4th instar larvae were liberated thereon.
# Six days after, the dead and alive of the larvae were examined to calculate the mortality (two replications).
row,SMILES,mortality at 150 ppm [%]
1,C#CC(C)(CCCc1cccc(Oc2ccccc2)c1)c1ccc(Cl)cc1 (stereo not drawn) [(25)],100
2,C#CC(C)(CCCc1cccc(Oc2ccc(F)cc2)c1)c1ccc(OCC)cc1 (stereo not drawn) [(15)],100
3,C#CC(C)(CCCc1ccc(F)c(Cc2ccccc2)c1)c1ccc(OCC)cc1 (stereo not drawn) [(30)],100
4,C#CC(C)(CCCc1cccc(Oc2ccccc2)c1)c1ccc2c(c1)OCO2 (stereo not drawn) [(14)],100
5,C=CC(C)(CCCc1ccc(F)c(Nc2ccccc2)c1)c1ccc(OCC)cc1 (stereo not drawn) [(31)],100
6,C#CC(C)(CCCc1ccc(F)c(Oc2ccc(C)cc2)c1)c1ccc(OCC)cc1 (stereo not drawn) [(33)],100
7,C#CC(C)(CCCc1cccc(Oc2ccccc2)c1)c1ccc(OCC)c(Cl)c1 (stereo not drawn) [(16)],100
8,C#CC(C)(CCCc1ccc(F)c(Oc2ccccc2)c1)c1ccc(OCC=C)cc1 (stereo not drawn) [(8)],100
9,C#CC(C)(CCCc1cccc(Oc2ccccc2)c1)c1ccc(F)cc1 (stereo not drawn) [(35)],100
10,C#CC(C)(CCCc1cccc(Oc2ccccc2)c1)c1ccc(OC)cc1 (stereo not drawn) [(24)],100

# System: resistant strain of green rice leafhopper (Nephotetix cincticeps)
# Assay: Test Example 3: rice seedling dip test, resistant green rice leafhopper
# Type: in vivo
# Conditions: Nephotettix cincticeps, 24 h, rice seedlings dipped 1 minute; adults of resistant strain; after one day; read-out: LC50 value (ppm)
# Experimental: The emulsifiable concentrates of the following present compounds and control compounds obtained according to Formulation example 2 were each diluted with water to a prescribed concentration, and rice seedlings (about 12 cm in length) were dipped for 1 minute in the resulting aqueous dilute solutions. After air-drying, the seedlings were placed in test tube, and 10 adults of a resistant strain of green rice leafhopper (Nephotetix cincticeps) were liberated in the tube. After one day, the dead and alive of the adults were examined to obtain LC50 (50% lethal concentration)(two replications).
row,SMILES,LC50 [µg/mL]
1,C#CC(C)(CCCc1ccc(F)c(Oc2ccccc2)c1)c1ccc(Cl)c(Cl)c1 (stereo not drawn) [(36)],64
2,C#CC(C)(CCCc1cccc(Oc2ccccc2)c1)c1ccc(Cl)cc1 (stereo not drawn) [(25)],61
3,C#CC(C)(CCCc1cccc(Oc2ccc(F)cc2)c1)c1ccc(OCC)cc1 (stereo not drawn) [(15)],3.6
4,C#CC(C)(CCCc1ccc(F)c(Cc2ccccc2)c1)c1ccc(OCC)cc1 (stereo not drawn) [(30)],28
5,C#CC(C)(CCCc1ccc(F)c(Oc2ccc(C)cc2)c1)c1ccc(OCC)cc1 (stereo not drawn) [(33)],23
6,C#CC(C)(CCCc1cccc(Oc2ccccc2)c1)c1ccc(OCC)c(Cl)c1 (stereo not drawn) [(16)],15
7,C#CC(C)(CCCc1ccc(F)c(Oc2ccccc2)c1)c1ccc(OCC=C)cc1 (stereo not drawn) [(8)],54
8,C#CC(C)(CCCc1cccc(Oc2ccccc2)c1)c1ccc(F)cc1 (stereo not drawn) [(35)],93
9,C#CC(C)(CCCc1ccc(F)c(Oc2ccccc2)c1)c1ccc(OCC=C)c(Cl)c1 (stereo not drawn) [(40)],46
10,C#CC(C)(CCCc1cccc(Oc2ccccc2)c1)c1ccc(OC)cc1 (stereo not drawn) [(24)],27

# System: common mosquito (Culex pipiens pallens)
# Assay: Test Example 1: common mosquito larvae in diluted emulsifiable concentrate, mortality and emergence inhibition
# Type: in vivo
# Conditions: Culex pipiens, 24 h; 3.5 ppm; 20 last instar larvae; after one day; read-out: Mortality
# Experimental: The emulsifiable concentrates of the following present compounds obtained according to Formulation example 2 were each diluted with water so as to obtain respective aqueous solutions containing 3.5 ppm of said compounds, respectively. One hundred ml of thus diluted aqueous solutions were poured into respective polyethylene cups of 180 ml volume, and 20 of the last instar larvae of common mosquito (Culex pipiens pallens) were liberated thereto. After one day, the dead or alive of the larvae were examined.
# Thereafter, the feed was added to respective cups and the number of emerged pupae of the respective cups was counted when all the pupae of no treatment group had emerged to calculate the inhibitory ratios of the emergence.
# The mortality and the inhibitory ratio of the emergence are shown according to the following three criteria: • mortality: A; 90% or more, • B; less than 90% to 10%, • C; less than 10%. • inhibitory: A; 90% or more, ratio of • emergence B; less than 90% to 80% • C; less than 80%.
row,SMILES,mortality at 3.5 ppm [%]
1,C#CC(C)(CCCc1ccc(F)c(Oc2ccccc2)c1)c1ccc(Cl)c(Cl)c1 (stereo not drawn) [(36)],10 to 90
2,C#CC(CC)(CCCc1cccc(Oc2ccccc2)c1)c1ccc(Cl)cc1 (stereo not drawn) [(26)],> 90
3,C#CC(C)(CCCc1cccc(Oc2ccccc2)c1)c1ccc(Cl)cc1 (stereo not drawn) [(25)],> 90
4,C=CC(C)(CCCc1cccc(Oc2ccccc2)n1)c1ccc(OCC)cc1 (stereo not drawn) [(19)],10 to 90
5,C#CC(C)(CCCc1cccc(Oc2ccc(F)cc2)c1)c1ccc(OCC)cc1 (stereo not drawn) [(15)],> 90
6,C#CC(C)(CCCc1ccc(F)c(Cc2ccccc2)c1)c1ccc(OCC)cc1 (stereo not drawn) [(30)],> 90
7,C#CC(C)(CCCc1cccc(Oc2ccccc2)c1)c1ccc2c(c1)OCO2 (stereo not drawn) [(14)],> 90
8,C=CC(C)(CCCc1ccc(F)c(Nc2ccccc2)c1)c1ccc(OCC)cc1 (stereo not drawn) [(31)],> 90
9,C#CC(C)(CCCc1ccc(F)c(Oc2ccc(C)cc2)c1)c1ccc(OCC)cc1 (stereo not drawn) [(33)],> 90
10,C#CC(C)(CCCc1cccc(Oc2ccccc2)c1)c1ccc(OCC)c(Cl)c1 (stereo not drawn) [(16)],10 to 90
11,C#CC(C)(CCCc1ccc(F)c(Oc2ccccc2)c1)c1ccc(OCC=C)cc1 (stereo not drawn) [(8)],> 90
12,C#CC(CC)(CCCc1cccc(Oc2ccccc2)c1)c1ccc(OCC)cc1 (stereo not drawn) [(32)],> 90
13,C#CC(C)(CCCc1cccc(Oc2ccccc2)c1)c1ccc(F)cc1 (stereo not drawn) [(35)],> 90
14,C#CC(C)(CCCc1ccc(F)c(Oc2ccccc2)c1)c1ccc(OCC=C)c(Cl)c1 (stereo not drawn) [(40)],10 to 90
15,C#CC(CC)(CCCc1ccc(F)c(Oc2ccccc2)c1)c1ccc(Cl)cc1 (stereo not drawn) [(41)],> 90
16,C#CC(CCCc1cccc(Oc2ccccc2)c1)c1ccc(OCC)cc1 (stereo not drawn) [(28)],> 90
17,C#CC(C)(CCCc1cccc(Oc2ccccc2)c1)c1ccc(OC)cc1 (stereo not drawn) [(24)],10 to 90

# Same assay, conditions: Culex pipiens; 3.5 ppm; counted when all pupae of no treatment group had emerged; read-out: Inhibitory ratio of emergence
row,SMILES,pest or weed control at 3.5 ppm [%]
1,C#CC(C)(CCCc1ccc(F)c(Oc2ccccc2)c1)c1ccc(Cl)c(Cl)c1 (stereo not drawn) [(36)],> 90
2,C#CC(CC)(CCCc1cccc(Oc2ccccc2)c1)c1ccc(Cl)cc1 (stereo not drawn) [(26)],> 90
3,C#CC(C)(CCCc1cccc(Oc2ccccc2)c1)c1ccc(Cl)cc1 (stereo not drawn) [(25)],> 90
4,C=CC(C)(CCCc1cccc(Oc2ccccc2)n1)c1ccc(OCC)cc1 (stereo not drawn) [(19)],> 90
5,C#CC(C)(CCCc1cccc(Oc2ccc(F)cc2)c1)c1ccc(OCC)cc1 (stereo not drawn) [(15)],> 90
6,C#CC(C)(CCCc1ccc(F)c(Cc2ccccc2)c1)c1ccc(OCC)cc1 (stereo not drawn) [(30)],> 90
7,C#CC(C)(CCCc1cccc(Oc2ccccc2)c1)c1ccc2c(c1)OCO2 (stereo not drawn) [(14)],> 90
8,C=CC(C)(CCCc1ccc(F)c(Nc2ccccc2)c1)c1ccc(OCC)cc1 (stereo not drawn) [(31)],> 90
9,C#CC(C)(CCCc1ccc(F)c(Oc2ccc(C)cc2)c1)c1ccc(OCC)cc1 (stereo not drawn) [(33)],> 90
10,C#CC(C)(CCCc1cccc(Oc2ccccc2)c1)c1ccc(OCC)c(Cl)c1 (stereo not drawn) [(16)],> 90
11,C#CC(C)(CCCc1ccc(F)c(Oc2ccccc2)c1)c1ccc(OCC=C)cc1 (stereo not drawn) [(8)],> 90
12,C#CC(CC)(CCCc1cccc(Oc2ccccc2)c1)c1ccc(OCC)cc1 (stereo not drawn) [(32)],> 90
13,C#CC(C)(CCCc1cccc(Oc2ccccc2)c1)c1ccc(F)cc1 (stereo not drawn) [(35)],> 90
14,C#CC(C)(CCCc1ccc(F)c(Oc2ccccc2)c1)c1ccc(OCC=C)c(Cl)c1 (stereo not drawn) [(40)],> 90
15,C#CC(CC)(CCCc1ccc(F)c(Oc2ccccc2)c1)c1ccc(Cl)cc1 (stereo not drawn) [(41)],> 90
16,C#CC(CCCc1cccc(Oc2ccccc2)c1)c1ccc(OCC)cc1 (stereo not drawn) [(28)],> 90
17,C#CC(C)(CCCc1cccc(Oc2ccccc2)c1)c1ccc(OC)cc1 (stereo not drawn) [(24)],> 90
